Experimental data published in ChEMBL document CHEMBL5614370, “Data-oriented protein kinase drug discovery” (Eur J Med Chem, 2024).

Key:
[1] = molecular target: Hepatocyte growth factor receptor (Homo sapiens, UniProt P08581); assay: Inhibition of HGF receptor (unknown origin)
[2] = molecular target: Phosphatidylinositol 4,5-bisphosphate 3-kinase catalytic subunit alpha isoform (Homo sapiens, UniProt P42336); assay: Inhibition of PI3Kalpha (unknown origin)
[3] = molecular target: Macrophage colony-stimulating factor 1 receptor (Homo sapiens, UniProt P07333); assay: Inhibition of CSF1R (unknown origin)
Chain of Macrophage colony-stimulating factor 1 receptor (P07333 whole entry): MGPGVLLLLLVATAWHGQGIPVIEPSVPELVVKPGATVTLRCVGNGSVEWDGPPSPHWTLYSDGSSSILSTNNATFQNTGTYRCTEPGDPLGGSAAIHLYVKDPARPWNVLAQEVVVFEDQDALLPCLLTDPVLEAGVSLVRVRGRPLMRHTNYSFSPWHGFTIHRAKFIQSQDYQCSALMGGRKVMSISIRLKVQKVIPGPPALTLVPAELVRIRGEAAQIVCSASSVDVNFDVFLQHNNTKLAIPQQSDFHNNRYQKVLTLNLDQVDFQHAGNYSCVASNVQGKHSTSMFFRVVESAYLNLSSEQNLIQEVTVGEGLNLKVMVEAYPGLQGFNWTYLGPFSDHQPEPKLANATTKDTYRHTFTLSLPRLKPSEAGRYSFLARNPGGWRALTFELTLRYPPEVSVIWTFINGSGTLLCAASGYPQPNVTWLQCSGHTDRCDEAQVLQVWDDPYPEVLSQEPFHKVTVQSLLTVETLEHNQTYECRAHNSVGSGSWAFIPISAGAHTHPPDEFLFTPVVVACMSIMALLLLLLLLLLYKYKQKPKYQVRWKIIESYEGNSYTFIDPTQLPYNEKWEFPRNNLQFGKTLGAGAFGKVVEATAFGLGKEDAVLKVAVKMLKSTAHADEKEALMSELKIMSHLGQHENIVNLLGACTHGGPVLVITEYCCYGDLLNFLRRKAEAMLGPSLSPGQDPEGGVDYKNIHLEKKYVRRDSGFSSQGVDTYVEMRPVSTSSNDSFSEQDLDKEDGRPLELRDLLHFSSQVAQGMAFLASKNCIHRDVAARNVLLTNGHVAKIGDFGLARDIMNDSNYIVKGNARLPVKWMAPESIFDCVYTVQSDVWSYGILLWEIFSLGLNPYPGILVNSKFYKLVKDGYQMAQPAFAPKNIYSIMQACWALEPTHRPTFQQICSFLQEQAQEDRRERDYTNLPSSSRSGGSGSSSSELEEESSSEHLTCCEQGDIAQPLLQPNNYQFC

Chain of Phosphatidylinositol 4,5-bisphosphate 3-kinase catalytic subunit alpha isoform (P42336 whole entry, canonical isoform): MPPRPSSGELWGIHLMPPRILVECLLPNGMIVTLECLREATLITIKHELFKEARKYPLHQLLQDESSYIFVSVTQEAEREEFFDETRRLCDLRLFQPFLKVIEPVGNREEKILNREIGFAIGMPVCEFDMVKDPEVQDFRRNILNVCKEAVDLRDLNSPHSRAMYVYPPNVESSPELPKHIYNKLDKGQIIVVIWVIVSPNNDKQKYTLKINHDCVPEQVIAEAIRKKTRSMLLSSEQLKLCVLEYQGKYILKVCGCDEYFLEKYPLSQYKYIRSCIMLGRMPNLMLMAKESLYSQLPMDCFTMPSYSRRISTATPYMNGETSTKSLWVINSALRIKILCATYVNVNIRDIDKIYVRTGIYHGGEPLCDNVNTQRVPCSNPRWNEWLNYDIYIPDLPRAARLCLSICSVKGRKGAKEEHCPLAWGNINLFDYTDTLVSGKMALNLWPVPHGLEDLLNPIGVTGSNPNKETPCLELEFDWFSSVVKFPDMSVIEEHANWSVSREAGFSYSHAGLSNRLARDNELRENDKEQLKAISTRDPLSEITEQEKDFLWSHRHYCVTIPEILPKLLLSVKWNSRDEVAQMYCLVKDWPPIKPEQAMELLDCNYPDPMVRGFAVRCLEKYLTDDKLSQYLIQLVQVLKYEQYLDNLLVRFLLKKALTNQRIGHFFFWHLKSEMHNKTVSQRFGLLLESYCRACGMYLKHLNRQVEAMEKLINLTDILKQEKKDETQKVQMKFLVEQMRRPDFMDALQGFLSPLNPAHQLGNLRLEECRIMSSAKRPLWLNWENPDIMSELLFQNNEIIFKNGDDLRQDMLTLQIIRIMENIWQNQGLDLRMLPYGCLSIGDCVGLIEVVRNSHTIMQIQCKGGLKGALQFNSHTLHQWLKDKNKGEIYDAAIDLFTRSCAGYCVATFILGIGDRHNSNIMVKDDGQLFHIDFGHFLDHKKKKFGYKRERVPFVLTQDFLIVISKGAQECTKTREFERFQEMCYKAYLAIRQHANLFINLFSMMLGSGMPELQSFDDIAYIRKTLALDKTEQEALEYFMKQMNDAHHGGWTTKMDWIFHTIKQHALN
Chain of Hepatocyte growth factor receptor (P08581 whole entry, canonical isoform): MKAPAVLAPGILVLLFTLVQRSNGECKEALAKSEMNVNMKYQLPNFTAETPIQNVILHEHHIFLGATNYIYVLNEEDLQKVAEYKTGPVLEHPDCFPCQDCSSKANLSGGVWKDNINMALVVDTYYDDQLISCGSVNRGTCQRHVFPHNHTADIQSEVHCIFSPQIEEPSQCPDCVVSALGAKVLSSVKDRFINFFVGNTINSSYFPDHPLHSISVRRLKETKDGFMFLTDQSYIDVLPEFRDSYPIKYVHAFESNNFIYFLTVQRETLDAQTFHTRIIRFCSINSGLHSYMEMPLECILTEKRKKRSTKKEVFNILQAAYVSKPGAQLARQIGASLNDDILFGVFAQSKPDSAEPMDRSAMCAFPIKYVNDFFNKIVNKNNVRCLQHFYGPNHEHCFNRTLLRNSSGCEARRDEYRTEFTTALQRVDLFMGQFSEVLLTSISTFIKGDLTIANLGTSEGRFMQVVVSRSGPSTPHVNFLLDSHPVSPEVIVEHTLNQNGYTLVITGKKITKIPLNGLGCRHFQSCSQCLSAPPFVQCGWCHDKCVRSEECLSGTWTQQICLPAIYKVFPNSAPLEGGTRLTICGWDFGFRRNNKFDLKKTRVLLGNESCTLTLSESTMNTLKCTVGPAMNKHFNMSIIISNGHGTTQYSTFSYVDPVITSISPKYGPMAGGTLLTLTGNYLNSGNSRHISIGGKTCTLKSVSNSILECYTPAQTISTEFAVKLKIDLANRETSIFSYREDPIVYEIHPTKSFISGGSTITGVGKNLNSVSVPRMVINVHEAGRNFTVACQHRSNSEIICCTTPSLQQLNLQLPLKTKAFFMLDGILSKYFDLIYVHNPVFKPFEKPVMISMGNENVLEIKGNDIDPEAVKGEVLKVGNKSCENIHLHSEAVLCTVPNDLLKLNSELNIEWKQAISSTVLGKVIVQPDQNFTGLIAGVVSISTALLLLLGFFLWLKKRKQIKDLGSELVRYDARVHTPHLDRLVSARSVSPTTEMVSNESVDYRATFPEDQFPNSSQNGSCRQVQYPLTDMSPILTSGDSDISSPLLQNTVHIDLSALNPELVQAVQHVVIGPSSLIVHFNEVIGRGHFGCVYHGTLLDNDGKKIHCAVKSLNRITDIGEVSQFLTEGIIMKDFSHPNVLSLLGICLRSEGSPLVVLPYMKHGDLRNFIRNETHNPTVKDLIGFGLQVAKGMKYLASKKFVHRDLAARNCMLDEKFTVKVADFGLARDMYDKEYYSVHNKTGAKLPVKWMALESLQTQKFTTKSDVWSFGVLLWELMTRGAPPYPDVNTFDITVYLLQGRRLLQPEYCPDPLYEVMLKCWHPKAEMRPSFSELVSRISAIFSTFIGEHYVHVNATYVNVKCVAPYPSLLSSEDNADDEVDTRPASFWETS

Row | SMILES | IC50 [2] | further results
1 | C1=CN(c2ccccc2)CC(CNc2ccc(Oc3ccncc3)cc2)=C1 | – | IC50 [1]: 8.91 nM
2 | c1n[nH]c(-c2nc3c(s2)CCOc2cc(-c4cn[nH]c4)ccc2-3)n1 | 0.269 nM | –
3 | c1n[nH]c(-c2nc3c(s2)CCOc2cc(C4CNC4)ccc2-3)n1 | 1.91 nM | –
4 | C1=C(c2cc(C3CNCNC3)ccc2NCc2ncc[nH]2)CCCC1 | – | IC50 [3]: 2.51 nM
